What was measured:
[1] = tested on: DOCA-salt hypertensive rats; experiment: antihypertensive effect in DOCA-salt hypertensive rats; type: in vivo; conditions: 30 mg/kg p.o., in PEG 400; DOCA-salt hypertensive rat
Protocol: The antihypertensive effect can be determined in desoxycorticosterone acetate (DOCA)-salt hypertensive rats.
DOCA-salt hypertensive rats (280-380 g) are prepared by the standard method. Rats underwent a unilateral nephrectomy and one week later are implanted with silastic pellets containing 100 mg/kg of DOCA. The rats are maintained on 1% NaCl/0.2% KCl drinking water for three to five weeks until sustained hypertension is established. The antihypertensive activity is evaluated at this time.
Two days before an experiment, the rats are anesthetized with methoxyflurane and instrumented with catheters in the femoral artery to measure arterial blood pressure. Forty-eight hours later, baseline arterial pressure and heart rate are recorded during a 1 hour period. The test compound (30 mg/kg p.o.) or vehicle is then administered and the same cardiovascular parameters are monitored for an additional 5 hours.

ANF-induced natriuresis = experiment: potentiation of the natriuretic effect of ANF in anesthetized rats; type: in vivo, Male Sprague-Dawley rats; conditions: 30 mg/Kg in polyethylene glycol 400, intraduodenally; ANF 1 μg/kg i.v. bolus
Protocol: The potentiation of the natriuretic effect of ANF can be determined as follows:
Male Sprague-Dawley rats (280-360 g) are anesthetized with Inactin (100 mg/kg i.p.) and instrumented with catheters in the femoral artery, femoral vein and urinary bladder to measure arterial pressure, administer ANF and collect urine, respectively. A continuous infusion of normal saline (33 μl/min) is maintained throughout the experiment to promote diuresis and sodium excretion. The experimental protocol consists of an initial 15 minute collection period (designated as pre-control) followed by three additional collection periods. Immediately after completion of the pre-control period, test compound or vehicle is administered; nothing is done for the next 45 minutes. […] At the conclusion of this period, ANF is administered (1 μg/kg i.v. bolus) to all animals and arterial pressure and renal parameters are determined during two consecutive 15 minutes collection periods.
Mean arterial pressure, urine flow and urinary sodium excretion are determined for all collection periods. Blood pressure is measured with a Gould p50 pressure transducer, urine flow is determined gravimetrically, sodium concentration is measured by flame photometry, and urinary sodium excretion is calculated as the product of urine flow and urine sodium concentration.

plasma ANF levels = experiment: effect on rat plasma ANF concentration during ANF infusion; type: in vivo, Male Sprague-Dawley rats; conditions: about 1-30 mg/kg p.o., in 10% ethanol/polyethylene glycol 400; ANF infused 450 ng/kg/min i.v.
Protocol: The effect of the compounds of the invention on rat plasma ANF concentration can be determined as follows:
Male Sprague-Dawley rats (275-390 g) are anesthetized with ketamine (150 mg/kg)/acepromazine (10%) and instrumented with catheters in the femoral artery and vein to obtain blood samples and infuse ANF, respectively. The rats are tethered with a swivel system and are allowed to recover for 24 hours before being studied in the conscious, unrestrained state.
In this assay, plasma ANF levels are determined in the presence and absence of NEP inhibition. On the day of study, all rats are infused continuously with ANF at 450 ng/kg/min. i.v. for the entire 5 hours of the experiment. Sixty minutes after beginning the infusion, blood samples for baseline ANF measurements are obtained (time 0) and the rats are then randomly divided into groups treated with the test compound or vehicle. Additional blood samples are taken 30, 60, 120, 180 and 240 minutes after administration of the test compound.
Plasma concentrations are determined by a specific radioimmunoassay. […] The supernatant is decanted and the pellets counted in a gamma counter. […] Plasma ANF levels are expressed as a percent of those measured in vehicle-treated animals which received ANF alone (450 ng/kg/min i.v.).

[2] = molecular target: T1, Neutral endopeptidase 3.4.24.11 (Rattus norvegicus, UniProt P07861); experiment: in vitro inhibition of neutral endopeptidase (NEP) 3.4.24.11, GAAP substrate assay; type: biochemical; conditions: rat kidney cortex membranes, 500 μM GAAP substrate, pH 7.4, 25° C., 10 minutes
T1 construct: rat kidney cortex membranes prepared by method of Maeda et al, 1983; from tissue; host or cells: rat kidney cortex membranes
T1 sequence (P07861 1-750): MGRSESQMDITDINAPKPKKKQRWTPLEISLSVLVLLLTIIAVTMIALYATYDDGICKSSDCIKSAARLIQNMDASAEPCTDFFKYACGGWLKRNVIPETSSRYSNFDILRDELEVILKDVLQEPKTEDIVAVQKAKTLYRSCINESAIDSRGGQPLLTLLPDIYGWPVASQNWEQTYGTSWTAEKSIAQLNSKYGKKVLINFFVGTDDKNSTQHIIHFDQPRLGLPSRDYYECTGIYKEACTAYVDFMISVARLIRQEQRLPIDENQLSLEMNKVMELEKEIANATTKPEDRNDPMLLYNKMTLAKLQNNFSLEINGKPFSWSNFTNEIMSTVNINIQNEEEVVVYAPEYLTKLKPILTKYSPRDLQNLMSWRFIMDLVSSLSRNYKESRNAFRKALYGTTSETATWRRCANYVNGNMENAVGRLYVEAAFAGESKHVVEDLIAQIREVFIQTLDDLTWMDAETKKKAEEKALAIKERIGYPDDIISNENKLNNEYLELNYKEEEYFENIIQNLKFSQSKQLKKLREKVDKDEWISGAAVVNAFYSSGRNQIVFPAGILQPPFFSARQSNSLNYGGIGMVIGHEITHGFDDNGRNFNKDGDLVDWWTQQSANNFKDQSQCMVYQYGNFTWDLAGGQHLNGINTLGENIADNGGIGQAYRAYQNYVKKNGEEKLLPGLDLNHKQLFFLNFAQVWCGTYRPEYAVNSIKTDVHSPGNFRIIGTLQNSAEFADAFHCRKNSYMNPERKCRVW
Protocol: The in vitro inhibition of neutral endopeptidase (NEP) 3.4.24.11 can be determined as follows:
Neutral endopeptidase 3.4.24.11 activity is determined by the hydrolysis of the substrate glutaryl-Ala-Ala-Phe-2-naphthylamide (GAAP) using a modified procedure of Orlowski and Wilk (1981). The incubation mixture (total volume 125 μl) contains 4.2 μg of protein (rat kidney cortex membranes prepared by method of Maeda et al, 1983), 50 mM tris buffer, pH 7.4 at 25° C., 500 μM substrate (final concentration), and leucine aminopeptidase M (2.5 μg). The mixture is incubated for 10 minutes at 25° C. and 100 μl of fast garnet (250 μg fast garnet/ml of 10% Tween 20 in 1M sodium acetate, pH 4.2) is added. Enzyme activity is measured spectrophotometrically at 540 nm. One unit of NEP 24.11 activity is defined as 1 nmol of 2-naphthylamine released per minute at 25° C. at pH 7.4. IC50 values are determined, i.e. the concentration of test compound required for 50% inhibition of the release of 2-naphthylamine.
The test compound is dissolved in dimethyl sulfoxide or 0.25 M sodium bicarbonate solution, and the solution is diluted with pH 7.4 buffer to the desired concentration.
In vitro testing is most appropriate for the free phosphono/carboxylic acids of the invention.

| SMILES | reduction in blood pressure [1] | potentiation of ANF-induced natriuresis (ANF-induced natriuresis) | increase in plasma ANF levels (plasma ANF levels) | IC50 [2] [nM] |
| --- | --- | --- | --- | --- |
| O=C(O)CCNC(=O)[C@H](Cc1ccc(-c2ccccc2)cc1)NCP(=O)(Oc1ccccc1)Oc1ccccc1 [(S)-N-[2-(diphenylphosphonomethylamino)-3-(4-biphenylyl)propionyl]-3-aminopropionic acid] | significant reduction in blood pressure | significant potentiation of ANF-induced natriuresis | significant increases in plasma ANF levels |  |
| O=C(O)CCNC(=O)[C@H](Cc1ccc(-c2ccccc2)cc1)NCP(=O)(O)O [(S)-antipode, S-(+)-N-[2-(phosphonomethylamino)-3-(4-biphenylyl)-propionyl]-3-aminopropionic acid] |  |  |  | ~1.6 |
| O=C(O)CCNC(=O)C(Cc1ccc(-c2ccccc2)cc1)NCP(=O)(O)O (centres unmarked) [N-[2-(phosphonomethylamino)-3-(4-biphenylyl)-propionyl]-3-aminopropionic acid] |  |  |  | ~4.3 |

From US5294632A, “Phosphono/biaryl substituted dipetide derivatives” (Ciba-Geigy Corporation, priority 1992, dated 1994)
